Reference: patent US20190307729A1, “ANTIMICROBIAL COMPOUNDS AND METHODS FOR USE THEREOF” (VERSITECH LIMITED, priority 2016, published 2019)
“Also recorded” adds a separate entry of the source. Read-outs that look alike come from different tables or passages of the source.

What was measured:
[1] = system: S. aureus Mu3; test: Secondary screening of compound 13 analogues in combination with gentamicin (growth by OD 595 nm); details: for activity at 5 µM / activity at 20 µM / activity at 50 µM / inhibition at 20 µM / inhibition at 50 µM: Staphylococcus aureus; for activity at 5 µM / activity at 20 µM / activity at 50 µM: MU3, 16 h, read-out: relative growth; for inhibition at 20 µM: MU3, read-out: 20 μM + 200 μg/ml Gentamicin Growth inhibition Percentage; for inhibition at 50 µM: MU3, read-out: 50 μM + 200 μg/ml Gentamicin Growth inhibition Percentage; for relative growth: relative to DMSO = 1
Procedure: All screening is done in 384-well polystyrene microtiter plates (Greiner Bio-One). Overnight culture of Mu3 is washed with BHI medium 3 times, diluted and plated to give 5×10^5 CFU/mL per well. The plates are incubated at 37° C. for 16 hours and growth is monitored by optical density reading at 595 nm using an automated DTX 880 multimode detector. Screening using BHI medium is designated as the background screen. […] Sub MIC concentration of antibiotics is selected for screening. BHI containing a final concentration for gentamicin 156.25 μg/mL is used correspondingly for individual experiments. […] Screening results with various antibiotics is normalized with the background screening to calculate the percentage of growth inhibition.
Identical experimental procedures are performed as primary screening procedures, except different concentrations of selected compound are tested.
Secondary like screening was performed with different concentrations of each analogue compounds were tested with different gentamicin concentration, 50 μM, 20 μM and 5 μM compound concentration were used against, BHI containing, 0 μg/ml, 100 μg/ml and 200 μg/ml gentamicin.

[2] = system: hla promoter; test: Paper disc diffusion and lux assay (hla promoter lux reporter); assay type: cell-based, S. aureus
Procedure: A single colony of bioluminescent S. aureus carrying the hla-promoter lux reporting system was resuspended in 200 μl of sterile water, diluted 1000-fold into 0.7% (w/v) BHI agar and overlaid onto BHI agar plates. 10 μl of the 50 mM analogues compounds dissolved in DMSO were impregnated to paper disc and placed on the lawn of bacteria. The plates were incubated overnight at 37° C. The luminescence was detected with Xenogen IVIS 100 in vivo imaging system (Xenogen, Alameda, Calif.).

[3] = system: S. aureus Mu3 strain; test: Microdilution checkerboard assay of compound with aminoglycosides; details: for Combinatory effect with gentamicin: checkerboard
Procedure: (§1) The Checkerboard assay is performed in 96-well microtitre plates. […] The antibiotics are 2 fold serially diluted along the ordinate, the compounds are added along the abscissa to generate the checkerboard concentration gradients between the compounds and the antibiotics. Bacterial culture are topped and incubated overnight. Bacterial growth is monitored by the OD absorbance at 595 nm.
(§2) The concentration tested range was from 500M to 0.98 μM. MICs higher than 500M were not determined.

[4] = system: E. faecalis; test: Checkerboard assay with gentamicin
Procedure: as §1, §2

[5] = system: E. coli; test: Checkerboard assay with gentamicin; assay type: cell-based, Escherichia coli
Procedure: Bacterial culture are topped and incubated overnight.

[6] = system: S. pneumoniae; test: Checkerboard assay with gentamicin
Procedure: as §1, §2

[7] = system: P. aeruginosa; test: Pigment formation (virulence suppression); assay type: cell-based, Pseudomonas aeruginosa
[8] = system: L. monocytogenes; test: Checkerboard assay with gentamicin
Procedure: as §1, §2

[9] = system: Vero cells; test: Cytotoxicity assay (MTT); assay type: cell-based; details: for Cytotoxicity: MTT assays in Vero cells
Procedure: MTT assays are performed for selected compounds on Vero cells according to product instructions.

[10] = system: S. aureus Mu3; test: BALB/c mice infection model, organ bacterial load; details: 3 days after infection
Excerpt: (§3) 6-8 weeks old female BALB/c mice were infected with 4×10^8 CFU of S. aureus. […] 3 days after infection, the animals were euthanized; kidneys, livers and spleens were homogenized in PBS, and plated on BHI agar for quantitative bacterial culture.

[11] = system: S. aureus USA300; test: BALB/c mice infection model, organ bacterial load; details: 3 days after infection
Excerpt: as §3

[12] = system: S. aureus; test: MIC of compound 3 and analogues (Table 7, strain not given)
[13] = system: hla promoter; test: Paper disc diffusion and lux assay (hla promoter lux reporter); assay type: cell-based, S. aureus; details: each compound used at 25 μM
[14] = system: MRSA Mu3; test: Minimal inhibitory concentration (MIC) test, broth micro-dilution; assay type: cell-based, Staphylococcus aureus; details: microbroth dilution
Procedure: Preliminary testing of the MIC value of three antibiotics (Gentamicin, Ceftriaxone, and Levofloxacin) against MRSA Mu3 was performed according to microbroth dilution methods. This was to establish the reference for the appropriate amount of antibiotics to be used for HTS for hit identification of compounds that could have synergistic activities or potentiate the antibiotic's antimicrobial effect. The MIC value of Gentamicin against MRSA Mu3 was determined to be 1000 μg/mL.

## CCCOc1ccc(/C=C2\SC(=S)N(CC(=O)O)C2=O)cc1 [Compound 48]
[1]
  activity at 5 µM: 98%
  activity at 20 µM: 95%
  activity at 50 µM: 87%
  inhibition at 20 µM: 36%
  inhibition at 50 µM: 69%
[1]; [Cpd] 5 μM, [Genta] 100 ug/ml
  relative growth: 0.97
[1]; [Cpd] 5 μM, [Genta] 200 ug/ml
  relative growth: 0.96
[1]; [Cpd] 20 μM, [Genta] 100 ug/ml
  relative growth: 0.97
[1]; [Cpd] 20 μM, [Genta] 200 ug/ml
  relative growth: 0.64
[1]; [Cpd] 50 μM, [Genta] 100 ug/ml
  relative growth: 0.8
[1]; [Cpd] 50 μM, [Genta] 200 ug/ml
  relative growth: *0.31
[2]
  repression in hla promoter lux reporter assay: significant repression

## O=C(O)CN1C(=O)C(=Cc2ccc(OCc3ccc(Cl)cc3)cc2)SC1=S [Compound 82]
[3]
  Combinatory effect with gentamicin: Potentiating
  combined effect with gentamicin in inhibiting growth: good level of potentiating effect
  combined effect with neamine in inhibiting growth: retained its potentiating effect
[3]; listed as compound 82
  combined effect with neamine in inhibiting growth: potentiating effect
[4]
  combined effect with gentamicin in inhibiting growth: potentiating effect
[5]
  combined effect with gentamicin in inhibiting growth: synergistic effect
[5]; listed as compound 82
  combined effect with gentamicin in inhibiting growth: potentiating effect
[6]
  combined effect with gentamicin in inhibiting growth: potentiating effect
[1]; 20 μM compound + 200 μg/ml gentamicin, S. aureus Mu3
  20 μM + 200 μg/ml Gentamicin Growth inhibition Percentage: 91%
[1]; 50 μM compound + 200 μg/ml gentamicin, S. aureus Mu3
  50 μM + 200 μg/ml Gentamicin Growth inhibition Percentage: 89%
[1]; [Cpd] 5 μM, BHI only (no gentamicin)
  relative growth: 1.03
[1]; [Cpd] 5 μM, [Genta] 100 ug/ml
  relative growth: 0.98
[1]; [Cpd] 5 μM, [Genta] 200 ug/ml
  relative growth: 0.61
[1]; [Cpd] 20 μM, BHI only (no gentamicin)
  relative growth: 0.78
[1]; [Cpd] 20 μM, [Genta] 100 ug/ml
  relative growth: *0.09
[1]; [Cpd] 20 μM, [Genta] 200 ug/ml
  relative growth: *0.09
[1]; [Cpd] 50 μM, BHI only (no gentamicin)
  relative growth: 0.99
[1]; [Cpd] 50 μM, [Genta] 100 ug/ml
  relative growth: *0.13
[1]; [Cpd] 50 μM, [Genta] 200 ug/ml
  relative growth: *0.11
[7]
  pigment formation: repressing the pigment formation
[8]
  combined effect with gentamicin in inhibiting growth: potentiating effect
[9]
  cytotoxicity from Vero cell MTT assays: low cytotoxicity
  Cytotoxicity: Low

## O=C(O)CN1C(=O)/C(=C/c2cccc(OCc3ccccc3Cl)c2)SC1=S [Compound 19]
[3]
  Combinatory effect with gentamicin: Potentiating
  combined effect with gentamicin in inhibiting growth: promising potentiating effect
[3]; listed as compound 19
  combined effect with gentamicin in inhibiting growth: potentiating effect
[1]
  activity at 5 µM: 99%
  activity at 20 µM: 91%
  activity at 50 µM: 76%
  inhibition at 20 µM: 91%
  inhibition at 50 µM: 92%
[1]; [Cpd] 5 μM, [Genta] 100 ug/ml
  relative growth: 0.96
[1]; [Cpd] 5 μM, [Genta] 200 ug/ml
  relative growth: 0.83
[1]; [Cpd] 20 μM, [Genta] 100 ug/ml
  relative growth: *0.1
[1]; [Cpd] 20 μM, [Genta] 200 ug/ml
  relative growth: *0.09
[1]; [Cpd] 50 μM, [Genta] 100 ug/ml
  relative growth: *0.09
[1]; [Cpd] 50 μM, [Genta] 200 ug/ml
  relative growth: *0.08
[9]
  cytotoxicity from Vero cell MTT assays: less cytotoxicity
  Cytotoxicity: Medium

## O=C(O)CN1C(=O)/C(=C/c2ccc(OCc3ccccc3)cc2)SC1=S [Compound 3]
[10]
  kidney bacterial load: reduction; also recorded: reduce kidney bacterial load
  liver bacterial load: reduction; also recorded: reduce liver bacterial load
  spleen bacterial load: reduction; also recorded: reduce spleen bacterial load
[11]
  liver bacterial load: reduction; also recorded: reduce liver bacterial load
  spleen bacterial load: reduction; also recorded: reduce spleen bacterial load
[1]
  activity at 5 µM: 118%
  activity at 20 µM: 109%
  activity at 50 µM: 88%
  inhibition at 20 µM: 60%
  inhibition at 50 µM: 92%
[1]; [Cpd] 5 μM, [Genta] 100 ug/ml
  relative growth: 1.12
[1]; [Cpd] 5 μM, [Genta] 200 ug/ml
  relative growth: 1.18
[1]; [Cpd] 20 μM, [Genta] 100 ug/ml
  relative growth: 0.94
[1]; [Cpd] 20 μM, [Genta] 200 ug/ml
  relative growth: 0.4
[1]; [Cpd] 50 μM, [Genta] 100 ug/ml
  relative growth: *0.09
[1]; [Cpd] 50 μM, [Genta] 200 ug/ml
  relative growth: *0.08
[12]; Staphylococcus aureus
  MIC: 500 µM
[13]
  Relative lux signal: 0.00439
[9]
  Cytotoxicity: Low
[2]
  repression in hla promoter lux reporter assay: significant repression

## Gentamicin
[14]
  MIC value against MRSA Mu3: 1000 µg/mL

## CCOc1cc(/C=C2\SC(=S)N(CC(=O)O)C2=O)ccc1OCc1ccc(Cl)cc1 [Compound 20]
[3]
  Combinatory effect with gentamicin: Potentiating
  combined effect with gentamicin in inhibiting growth: promising potentiating effect
[3]; listed as compound 20
  combined effect with gentamicin in inhibiting growth: potentiating effect
[1]
  activity at 5 µM: 101%
  activity at 20 µM: 78%
  activity at 50 µM: 91%
  inhibition at 20 µM: 91%
  inhibition at 50 µM: 86%
[1]; [Cpd] 5 μM, [Genta] 100 ug/ml
  relative growth: 0.96
[1]; [Cpd] 5 μM, [Genta] 200 ug/ml
  relative growth: 0.88
[1]; [Cpd] 20 μM, [Genta] 100 ug/ml
  relative growth: *0.14
[1]; [Cpd] 20 μM, [Genta] 200 ug/ml
  relative growth: *0.09
[1]; [Cpd] 50 μM, [Genta] 100 ug/ml
  relative growth: *0.17
[1]; [Cpd] 50 μM, [Genta] 200 ug/ml
  relative growth: *0.14
[9]
  cytotoxicity from Vero cell MTT assays: less cytotoxicity
  Cytotoxicity: Medium/Low

## COc1ccc(/C=C2/SC(=S)N(CCC(N)=O)C2=O)cc1 [Compound 87]
[12]
  MIC: 500 µM
[13]
  Relative lux signal: 0.2657
[2]
  repression in hla promoter lux reporter assay: hla promoter lux repression

## O=C(O)CN1C(=O)/C(=C/c2cccc(OCc3ccc(Cl)cc3Cl)c2)SC1=S [Compound 17]
[3]
  Combinatory effect with gentamicin: Potentiating
  combined effect with gentamicin in inhibiting growth: potentiating activities
[3]; listed as compound 17
  combined effect with gentamicin in inhibiting growth: potentiating effect
[1]
  activity at 5 µM: 99%
  activity at 20 µM: 74%
  activity at 50 µM: 43%
  inhibition at 20 µM: 91%
  inhibition at 50 µM: 87%
[1]; [Cpd] 5 μM, [Genta] 100 ug/ml
  relative growth: *0.35
[1]; [Cpd] 5 μM, [Genta] 200 ug/ml
  relative growth: *0.1
[1]; [Cpd] 20 μM, [Genta] 100 ug/ml
  relative growth: *0.09
[1]; [Cpd] 20 μM, [Genta] 200 ug/ml
  relative growth: *0.09
[1]; [Cpd] 50 μM, [Genta] 100 ug/ml
  relative growth: *0.14
[1]; [Cpd] 50 μM, [Genta] 200 ug/ml
  relative growth: *0.13
[9]
  cytotoxicity from Vero cell MTT assays: high cytotoxicity
  Cytotoxicity: High
